Experimental data from patent US20260226086A1, “COMPOUNDS AND COMPOSITIONS AS STAT3 DEGRADERS AND USES THEREOF” (REGENTS OF THE UNIVERSITY OF MICHIGAN, priority 2023, published 2026).
Where two headings read alike, the source gives them in different places.

What was measured:
Type in all cases: cell-based
[1] = target: T1, STAT3 (Homo sapiens, UniProt P40763); test: HiBiT assay, STAT3 degradation in STAT3-HiBiT KI HeLa cells; details: for DC50: read-out: STAT3 Degradation (HeLa 24 h HiBit) DC50
T1 construct: This cell line is a clone created by using CRISPR-Cas9 to fuse HiBiT to the 3′ end of STAT3 in HeLa cells; host or cells: STAT3-HiBiT KI HeLa cell line (CRISPR-Cas9 knock-in clone)
T1 sequence (P40763 whole entry): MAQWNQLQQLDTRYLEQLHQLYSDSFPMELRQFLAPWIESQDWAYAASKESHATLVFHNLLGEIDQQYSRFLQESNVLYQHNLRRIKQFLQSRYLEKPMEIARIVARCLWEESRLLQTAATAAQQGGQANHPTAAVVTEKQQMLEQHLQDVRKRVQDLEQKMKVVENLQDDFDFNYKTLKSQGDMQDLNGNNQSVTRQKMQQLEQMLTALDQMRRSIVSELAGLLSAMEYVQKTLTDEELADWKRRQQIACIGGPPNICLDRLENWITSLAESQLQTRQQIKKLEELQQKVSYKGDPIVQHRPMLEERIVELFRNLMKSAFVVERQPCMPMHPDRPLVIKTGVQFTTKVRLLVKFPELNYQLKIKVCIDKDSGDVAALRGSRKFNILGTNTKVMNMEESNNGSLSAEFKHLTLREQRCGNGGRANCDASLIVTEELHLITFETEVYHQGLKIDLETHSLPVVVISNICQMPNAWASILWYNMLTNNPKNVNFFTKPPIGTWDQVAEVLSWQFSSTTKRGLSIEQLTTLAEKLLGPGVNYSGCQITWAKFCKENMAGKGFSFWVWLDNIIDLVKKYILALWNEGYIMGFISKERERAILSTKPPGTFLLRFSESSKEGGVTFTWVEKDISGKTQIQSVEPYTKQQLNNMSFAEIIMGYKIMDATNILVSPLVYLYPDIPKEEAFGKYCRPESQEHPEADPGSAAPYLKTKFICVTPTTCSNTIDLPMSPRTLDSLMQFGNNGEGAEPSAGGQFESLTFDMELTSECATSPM
Procedure: STAT3 degradation may be determined by HiBiT assay. STAT3-HiBiT KI HeLa cell line, which is a clone created by using CRTISPR-Cas9 to fuse HiBiT to the 3′ end of STAT3 in HeLa cells, may be used for this assay. In a typical procedure, cells seeded at certain amounts of cells (e.g., 20000 cells) per well are incubated with serially diluted compounds for certain period of time (e.g., 24 hours) under certain conditions (e.g., at 37° C. with 5% CO2). At the end of treatment, Nano-Glo HiBiT Lytic Detection reagents is added to the wells and luminescence is acquired on TECAN SPARK plate reader. Untreated cells are used as control. Data points are fit with a four-parameter equation to generate a concentration-response curve. IC50 values are calculated using a nonlinear regression analysis of the mean±SD from triplicate.
STAT3-HiBiT KI HeLa cell line was purchased from Promega. This cell line is a clone created by using CRISPR-Cas9 to fuse HiBiT to the 3′ end of STAT3 in HeLa cells. DMEM medium and FBS were purchased from Gibco/Thermo Fisher Scientific. STAT3 degradation was determined based on quantification of luminescent signal using Nano-Glo HiBiT Lytic Detection System. In a typical procedure, cells seeded at 20000 cells per well in 96-well white plates (Corning) were incubated with serially diluted compounds for 24 hours at 37° C. with 5% CO2. At the end of treatment, Nano-Glo HiBiT Lytic Detection reagents was added to the wells and luminescence was acquired on TECAN SPARK plate reader. Untreated cells were used as control. Data points were fit with a four-parameter equation to generate a concentration-response curve. IC50 values were calculated using a nonlinear regression analysis of the mean±SD from triplicate.

[2] = system: SU-DHL-1 cells; test: CellTiter-Glo 2.0 cell viability assay, SU-DHL-1; details: Homo sapiens, 96 h, 4 days
Procedure: (§1) For example, cell viability may be determined by CellTiter-Glo 2.0 Cell Viability Assay. In a typical procedure, cells seeded at certain amounts of cells (e.g., 1000 cells) per well are incubated with serially diluted compounds for certain period (e.g., 4 days) under certain conditions (e.g., at 37° C. with 5% CO2). At the end of treatment, CellTiter-Glo 2.0 is added to the wells and luminescence is acquired on TECAN SPARK plate reader. Untreated cells are used as control, Data points are fit with an equation (e.g., a four-parameter equation) to generate a concentration-response curve. IC50 values are calculated using a nonlinear regression analysis of the mean±SD from triplicate.
(§2) SU-DHL-1 and SUP-M2 cell viability was determined by CellTiter-Glo 2.0 Cell Viability Assay (Promega). SU-DHL-1 cell line was purchased from ATCC (Manassas, VA) and SUP-M2 (ACC-509) was purchased from DSMZ (Germany). RPMI 1640 medium and fetal bovine serum (FBS) were purchased from Gibco/Thermo Fisher Scientific. In a typical procedure, cells seeded at 1000 cells per well in 384-well white plates (Corning) were incubated with serially diluted compounds for 4 days at 37° C. with 5% C02. At the end of treatment, CellTiter-Glo 2.0 was added to the wells and luminescence was acquired on TECAN SPARK plate reader. Untreated cells were used as control. Data points were fit with a four-parameter equation to generate a concentration-response curve. IC50 values were calculated using a nonlinear regression analysis of the mean±SD from triplicate.

[3] = system: SUP-M2 cells; test: CellTiter-Glo 2.0 cell viability assay, SUP-M2; details: SUP-M2, 96 h, 4 days
Procedure: as §1, §2

Row | SMILES | Dmax at 1 µM ([1]; 24 h) | DC50 ([1]; 24 h) | IC50 [2] | IC50 [3] | DC50 [1]
1 | CC(=O)N1CC[C@H]2CC[C@@H](C(=O)N[C@@H](CCC(N)=O)COc3cccc(CCCc4cn([C@H](C(=O)N5C[C@H](O)C[C@H]5C(=O)N[C@@H](CCN5CCOCC5)c5ccc(-c6scnc6C)cc5)C(C)(C)C)nn4)c3Cl)N2C(=O)[C@@H](NC(=O)c2cc3cc(C(=O)P(=O)(O)O)ccc3[nH]2)C1 [Compound 4, (2-(((5S,8S,10aR)-3-acetyl-8-(((S)-5-amino-1-(2-chloro-3-(3-(1-((S)-1-((2S,4R)-4-hydroxy-2-(((S)-1-(4-(4-methylthiazol-5-yl)phenyl)-3-morpholinopropyl)carbamoyl)pyrrolidin-1-yl)-3,3-dimethyl-1-oxobutan-2-yl)-1H-1,2,3-triazol-4-yl)propyl)phenoxy)-5-oxopentan-2-yl)carbamoyl)-6-oxodecahydropyrrolo[1,2-a][1,5]diazocin-5-yl)carbamoyl)-1H-indole-5-carbonyl)phosphonic acid] | > 80% | 10 to 100 nM | 10 to 100 nM | 10 to 100 nM | 
2 | Cc1ncsc1-c1ccc([C@H](C)NC(=O)[C@@H]2C[C@@H](O)CN2C(=O)[C@@H](n2cc(CCCc3cccc(OC[C@H](CCC(N)=O)NC(=O)[C@@H]4CC[C@@H]5CCN(C(=O)C(C)C)C[C@H](NC(=O)c6cc7cc(C(=O)P(=O)(O)O)ccc7[nH]6)C(=O)N54)c3Cl)nn2)C(C)(C)C)cc1 [Compound 2, (2-(((5S,8S,10aR)-8-(((S)-5-amino-1-(2-chloro-3-(3-(1-((S)-1-((2S,4R)-4-hydroxy-2-(((S)-1-(4-(4-methylthiazol-5-yl)phenyl)ethyl)carbamoyl)pyrrolidin-1-yl)-3,3-dimethyl-1-oxobutan-2-yl)-1H-1,2,3-triazol-4-yl)propyl)phenoxy)-5-oxopentan-2-yl)carbamoyl)-3-isobutyryl-6-oxodecahydropyrrolo[1,2-a][1,5]diazocin-5-yl)carbamoyl)-1H-indole-5-carbonyl)phosphonic acid] | > 80% | < 10 nM | < 10 nM | < 10 nM | 
3 | CCS(=O)(=O)c1ccc(CNC(=O)[C@H](CCC(N)=O)NC(=O)[C@@H]2CC[C@@H]3CCN(C(=O)CCCCc4cn([C@@H](C(=O)N5C[C@H](O)C[C@H]5C(=O)N[C@H](C)c5ccc(-c6scnc6C)cc5)C5CCCCC5)nn4)C[C@H](NC(=O)c4cc5cc(C(=O)P(=O)(O)O)ccc5[nH]4)C(=O)N32)cc1 [Compound 20, (2-(((5S,8S,10aR)-8-(((S)-5-amino-1-((4-(ethylsulfonyl)benzyl)amino)-1,5-dioxopentan-2-yl)carbamoyl)-3-(5-(1-((R)-1-cyclohexyl-2-((2S,4R)-4-hydroxy-2-(((R)-1-(4-(4-methylthiazol-5-yl)phenyl)ethyl)carbamoyl)pyrrolidin-1-yl)-2-oxoethyl)-1H-1,2,3-triazol-4-yl)pentanoyl)-6-oxodecahydropyrrolo[1,2-a][1,5]diazocin-5-yl)carbamoyl)-1H-indole-5-carbonyl)phosphonic acid] | > 80% | < 10 nM | < 10 nM | < 10 nM | 
4 | Cc1ncsc1-c1ccc([C@H](C)NC(=O)[C@@H]2C[C@@H](O)CN2C(=O)[C@@H](n2cc(CCC(=O)N3CC[C@H]4CC[C@@H](C(=O)N[C@@H](CCC(N)=O)C(=O)NCc5cccc(Cl)c5)N4C(=O)[C@@H](NC(=O)c4cc5cc(C(=O)P(=O)(O)O)ccc5[nH]4)C3)nn2)C(C)(C)C)cc1 [Compound 8, (2-(((5S,8S,10aR)-8-(((S)-5-amino-1-((3-chlorobenzyl)amino)-1,5-dioxopentan-2-yl)carbamoyl)-3-(3-(1-((S)-1-((2S,4R)-4-hydroxy-2-(((S)-1-(4-(4-methylthiazol-5-yl)phenyl)ethyl)carbamoyl)pyrrolidin-1-yl)-3,3-dimethyl-1-oxobutan-2-yl)-1H-1,2,3-triazol-4-yl)propanoyl)-6-oxodecahydropyrrolo[1,2-a][1,5]diazocin-5-yl)carbamoyl)-1H-indole-5-carbonyl)phosphonic acid] | > 80% | 100 to 1000 nM | 100 to 1000 nM | 10 to 100 nM | 
5 | Cc1ncsc1-c1ccc([C@H](C)NC(=O)[C@@H]2C[C@@H](O)CN2C(=O)[C@@H](n2cc(CCCCCCC(=O)N3CC[C@H]4CC[C@@H](C(=O)N[C@@H](CCC(N)=O)C(=O)NC(c5ccccc5)c5ccccc5)N4C(=O)[C@@H](NC(=O)c4cc5cc(C(=O)P(=O)(O)O)ccc5[nH]4)C3)nn2)C(C)(C)C)cc1 [Compound 59, (2-(((5S,8S,10aR)-8-(((S)-5-amino-1-(benzhydrylamino)-1,5-dioxopentan-2-yl)carbamoyl)-3-(7-(1-((S)-1-((2S,4R)-4-hydroxy-2-(((S)-1-(4-(4-methylthiazol-5-yl)phenyl)ethyl)carbamoyl)pyrrolidin-1-yl)-3,3-dimethyl-1-oxobutan-2-yl)-1H-1,2,3-triazol-4-yl)heptanoyl)-6-oxodecahydropyrrolo[1,2-a][1,5]diazocin-5-yl)carbamoyl)-1H-indole-5-carbonyl)phosphonic acid] |  |  | > 1000 nM | > 1000 nM | > 1000 nM
6 | CCS(=O)(=O)c1ccc(CNC(=O)[C@H](CCC(N)=O)NC(=O)[C@@H]2CC[C@@H]3CCN(C(=O)CCCCc4cn([C@H](C(=O)N5C[C@H](O)C[C@H]5C(=O)N[C@@H](CCN5CCOCC5)c5ccc(-c6scnc6C)cc5)C(C)(C)C)nn4)C[C@H](NC(=O)c4cc5cc(C(=O)P(=O)(O)O)ccc5[nH]4)C(=O)N32)cc1 [Compound 17, (2-(((5S,8S,10aR)-8-(((S)-5-amino-1-((4-(ethylsulfonyl)benzyl)amino)-1,5-dioxopentan-2-yl)carbamoyl)-3-(5-(1-((S)-1-((2S,4R)-4-hydroxy-2-(((S)-1-(4-(4-methylthiazol-5-yl)phenyl)-3-morpholinopropyl)carbamoyl)pyrrolidin-1-yl)-3,3-dimethyl-1-oxobutan-2-yl)-1H-1,2,3-triazol-4-yl)pentanoyl)-6-oxodecahydropyrrolo[1,2-a][1,5]diazocin-5-yl)carbamoyl)-1H-indole-5-carbonyl)phosphonic acid] | > 80% | 100 to 1000 nM | 100 to 1000 nM | 100 to 1000 nM | 
7 | Cc1ncsc1-c1ccc([C@H](C)NC(=O)[C@@H]2C[C@@H](O)CN2C(=O)[C@@H](NC(=O)CC(=O)N2CC[C@H]3CC[C@@H](C(=O)N[C@@H](CCC(N)=O)C(=O)NC(c4ccccc4)c4ccccc4)N3C(=O)[C@@H](NC(=O)c3cc4cc(C(=O)P(=O)(O)O)ccc4[nH]3)C2)C(C)(C)C)cc1 [Compound 46, (2-(((5S,8S,10aR)-8-(((S)-5-amino-1-(benzhydrylamino)-1,5-dioxopentan-2-yl)carbamoyl)-3-(3-(((S)-1-((2S,4R)-4-hydroxy-2-(((S)-1-(4-(4-methylthiazol-5-yl)phenyl)ethyl)carbamoyl)pyrrolidin-1-yl)-3,3-dimethyl-1-oxobutan-2-yl)amino)-3-oxopropanoyl)-6-oxodecahydropyrrolo[1,2-a][1,5]diazocin-5-yl)carbamoyl)-1H-indole-5-carbonyl)phosphonic acid] |  | > 1000 nM | > 1000 nM | > 1000 nM | 
